The target in this assay is T1, Human DPP4 (Homo sapiens, UniProt P27487).
T1 construct: purchased Sigma-Aldrich MAK088
As to the kind of experiment: DPP4 activity assay (DPP4 Activity Assay Kit, fluorescent substrate). It counts as biochemical. As to conditions: Human DPP4; read-out: DPP4 inhibition IC50 [nM]). How it is done: DPP4 activity assay. Human DPP4 activity assay data were obtained using a DPP4 Activity Assay Kit (Sigma-Aldrich, MAK088) according to the manufacturer's instructions. Briefly, 10 μL of DPP4 Assay Buffer were transferred per well in low volume 384-well plates before transferring 10 μL of test compound dissolved in DPP4 assay buffer. To each well was added 5 μL of Master Reaction Mix containing a fluorescent substrate that becomes fluorescent upon cleavage by the enzyme. Fluorescence intensity measurements were recorded at 1-minute time intervals over the course of 20 minutes using an Envision Multimode Plate Reader (PerkinElmer).

For orientation: IC50 means the concentration that gives 50% inhibition.

T1 sequence (P27487 whole entry): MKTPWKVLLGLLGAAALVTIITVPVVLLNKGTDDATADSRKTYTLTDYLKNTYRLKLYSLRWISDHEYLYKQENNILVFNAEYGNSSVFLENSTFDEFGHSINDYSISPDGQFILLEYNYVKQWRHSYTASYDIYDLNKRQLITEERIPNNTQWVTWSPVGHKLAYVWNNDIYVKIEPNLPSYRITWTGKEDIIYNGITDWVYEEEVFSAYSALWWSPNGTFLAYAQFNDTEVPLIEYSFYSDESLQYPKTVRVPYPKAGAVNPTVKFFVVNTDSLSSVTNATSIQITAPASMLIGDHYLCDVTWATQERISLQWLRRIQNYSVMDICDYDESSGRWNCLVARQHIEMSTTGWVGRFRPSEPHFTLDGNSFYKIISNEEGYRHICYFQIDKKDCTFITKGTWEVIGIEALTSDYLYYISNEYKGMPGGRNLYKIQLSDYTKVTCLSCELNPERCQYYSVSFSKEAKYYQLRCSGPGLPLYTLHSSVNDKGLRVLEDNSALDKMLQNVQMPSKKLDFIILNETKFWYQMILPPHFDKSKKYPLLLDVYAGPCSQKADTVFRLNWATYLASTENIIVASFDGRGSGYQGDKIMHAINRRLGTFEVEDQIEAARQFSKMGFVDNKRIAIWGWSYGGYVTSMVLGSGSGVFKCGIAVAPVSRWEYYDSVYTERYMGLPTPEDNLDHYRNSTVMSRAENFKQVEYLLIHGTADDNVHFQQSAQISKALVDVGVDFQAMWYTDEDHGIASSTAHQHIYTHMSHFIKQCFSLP

For `CCCCCCCC(=O)OC12CC3C[C@@H](CC(NCC(=O)N4CCC[C@H]4C#N)(C3)C1)C2` (stereo in doubt) [Compound 24], the half-maximal inhibitory concentration (IC50) stood at 238 nM.

Turning to `N#C[C@@H]1CCCN1C(=O)CN[C@@]12CC3C[C@@H](C1)C[C@](OCCOCCn1cc(CN(C[C@H](O)[C@@H](O)[C@H](O)[C@H](O)CO)C[C@H](O)[C@@H](O)[C@H](O)[C@H](O)CO)nn1)(C3)C2` [Compound 9, (2S)-1-(((1S,3R,5S)-3-(2-(2-(4-((bis((2S,3R,4R,5R)-2,3,4,5,6-pentahydroxyhexyl)amino)methyl)-1H-1,2,3-triazol-1-yl)ethoxy)ethoxy)adamantan-1-yl)glycyl)pyrrolidine-2-carbonitrile], the half-maximal inhibitory concentration (IC50) turned out to be 10.8 nM.

Consider `CCCCCCN(CCc1ccc(OCCNC(=O)OCCOC23CC4C[C@@H](CC(NCC(=O)N5CCC[C@H]5C#N)(C4)C2)C3)cc1)C[C@H](O)[C@@H](O)[C@H](O)[C@H](O)CO` (stereo in doubt) [Compound 13, 2-(((1R,3S,5S)-3-((2-((S)-2-cyanopyrrolidin-1-yl)-2-oxoethyl)amino)adamantan-1-yl)oxy)ethyl (2-(4-(2-(hexyl((2S,3R,4R,5R)-2,3,4,5,6-pentahydroxyhexyl)amino)ethyl)phenoxy)ethyl)carbamate], for which the half-inhibitory concentration (IC50) came out at 23 nM.

On to `[N-]=[N+]=NCCOCCOCCOC(=O)c1nc(C(F)(F)F)n2c1CN(C(=O)C[C@H](N)Cc1cc(F)c(F)cc1F)CC2` [Compound 42, 2-(2-(2-azidoethoxy)ethoxy)ethyl (R)-7-(3-amino-4-(2,4,5-trifluorophenyl)butanoyl)-3-(trifluoromethyl)-5,6,7,8-tetrahydroimidazo[1,5-a]pyrazine-1-carboxylate], for which the half-inhibitory concentration (IC50) amounted to 0.4 nM.

Turning to `CCCCCCCOC(=O)NC12CC3CC(CC(NCC(=O)N4CCC[C@H]4C#N)(C3)C1)C2` [Compound 1, Heptyl(3-((2-((S)-2-cyanopyrrolidin-1-yl)-2-oxoethyl)amino)adamantan-1-yl)carbamate], the half-inhibitory concentration (IC50) was found to be 31 nM.

Regarding `CC#CCn1c(N2CCC[C@@H](N)C2)nc2c1c(=O)n(Cc1nc(NCCCCCCCn3cc(CN(C[C@H](O)[C@@H](O)[C@H](O)[C@H](O)CO)C[C@H](O)[C@@H](O)[C@H](O)[C@H](O)CO)nn3)ccc1C(=O)O)c(=O)n2C` [Compound 35, 2-((8-((R)-3-aminopiperidin-1-yl)-7-(but-2-yn-1-yl)-3-methyl-2,6-dioxo-2,3,6,7-tetrahydro-1H-purin-1-yl)methyl)-6-((7-(4-((bis((2S,3R,4R,5R)-2,3,4,5,6-pentahydroxyhexyl)amino)methyl)-1H-1,2,3-triazol-1-yl)heptyl)amino)nicotinic acid], the IC50 was 34.3 nM.

As for `CC#CCn1c(N2CCC[C@@H](N)C2)nc2c1c(=O)n(Cc1ccc(Cl)cc1C(=O)NCCCCC)c(=O)n2C` [Compound 40, (R)-2-((8-(3-aminopiperidin-1-yl)-7-(but-2-yn-1-yl)-3-methyl-2,6-dioxo-2,3,6,7-tetrahydro-1H-purin-1-yl)methyl)-5-chloro-N-pentylbenzamide], the IC50 came out at 700 nM.

For the molecule `CCCCCCCSC12CC3C[C@@H](CC(NCC(=O)N4CCC[C@H]4C#N)(C3)C1)C2` [Compound 2, (2S)-1-((3-(heptylthio)adamantan-1-yl)glycyl)pyrrolidine-2-carbonitrile], the 50% inhibitory concentration (IC50) turned out to be 26 nM.

Regarding `N[C@@H](CC(=O)N1CCn2c(C(F)(F)F)nc(C(=O)OCCCCN3CCOCC3)c2C1)Cc1cc(F)c(F)cc1F` [Compound 54, (R)-4-(1-((4-morpholinobutoxy)carbonyl)-3-(trifluoromethyl)-5,6-dihydroimidazo[1,5-a]pyrazin-7(8H)-yl)-4-oxo-1-(2,4,5-trifluorophenyl)butan-2-aminium (2R,3R)-3-carboxy-2,3-dihydroxypropanoate], the concentration for half-maximal inhibition (IC50) is 0.5 nM.

Take `CC#CCn1c(N2CCC[C@@H](N)C2)nc2c1c(=O)n(Cc1nc(NCCCCCCCn3cc(CN(C[C@H](O)[C@@H](O)[C@H](O)[C@H](O)CO)C[C@H](O)[C@@H](O)[C@H](O)[C@H](O)CO)nn3)ccc1C(=O)OC)c(=O)n2C` [Compound 34, methyl 2-((8-((R)-3-aminopiperidin-1-yl)-7-(but-2-yn-1-yl)-3-methyl-2,6-dioxo-2,3,6,7-tetrahydro-1H-purin-1-yl)methyl)-6-((7-(4-((bis((2S,3R,4R,5R)-2,3,4,5,6-pentahydroxyhexyl)amino)methyl)-1H-1,2,3-triazol-1-yl)heptyl)amino)nicotinate]: the IC50 stood at 41 nM.

As for `CCCCCCCOC12CC3C[C@@H](CC(NCC(=O)N4CCC[C@H]4C#N)(C3)C1)C2` (stereo in doubt) [Compound 6], the half-maximal inhibitory concentration (IC50) amounted to 31 nM.

With `CCCCCCN(Cc1cn(CCOCCOCCNC(=O)c2nc(C(F)(F)F)n3c2CN(C(=O)C[C@H](N)Cc2cc(F)c(F)cc2F)CC3)nn1)CC(O)C(O)C(O)C(O)CO` (stereo partly drawn) [Compound 47, 7-((R)-3-amino-4-(2,4,5-trifluorophenyl)butanoyl)-N-(2-(2-(2-(4-((hexyl(2,3,4,5,6-pentahydroxyhexyl)amino)methyl)-1H-1,2,3-triazol-1-yl)ethoxy)ethoxy)ethyl)-3-(trifluoromethyl)-5,6,7,8-tetrahydroimidazo[1,5-a]pyrazine-1-carboxamide], the half-inhibitory concentration (IC50) is 2.2 nM.

For the molecule `CC#CCn1c(N2CCC[C@@H](N)C2)nc2c1c(=O)n(Cc1ccc(Cl)cc1C(=O)OCCOCCn1cc(CN(CCCCCC)C[C@H](O)[C@@H](O)[C@H](O)[C@H](O)CO)nn1)c(=O)n2C` [Compound 41, 2-(2-(4-((hexyl(2,3,4,5,6-pentahydroxyhexyl)amino)methyl)-1H-1,2,3-triazol-1-yl)ethoxy)ethyl 2-((8-((R)-3-aminopiperidin-1-yl)-7-(but-2-yn-1-yl)-3-methyl-2,6-dioxo-2,3,6,7-tetrahydro-1H-purin-1-yl)methyl)-5-chlorobenzoate], the IC50 was over 10000 nM.

Regarding `N[C@@H](CC(=O)N1CCn2c(C(F)(F)F)nc(C(=O)NCCOCCN3CCOCC3)c2C1)Cc1cc(F)c(F)cc1F` [Compound 50, (R)-4-(1-((2-(2-morpholinoethoxy)ethyl)carbamoyl)-3-(trifluoromethyl)-5,6-dihydroimidazo[1,5-a]pyrazin-7(8H)-yl)-4-oxo-1-(2,4,5-trifluorophenyl)butan-2-aminium (2R,3R)-3-carboxy-2,3-dihydroxypropanoate], the IC50 came to 0.54 nM.

As to `N#C[C@@H]1CCCN1C(=O)CN[C@]12CC3CC(C1)C[C@@](OCCOCCNC[C@H](O)[C@@H](O)[C@H](O)[C@H](O)CO)(C3)C2` (stereo in doubt) [Compound 11, (2S)-1-(((1S,3R,5S)-3-(2-(2-(((2S,3R,4R,5R)-2,3,4,5,6-pentahydroxyhexyl)amino)ethoxy)ethoxy)adamantan-1-yl)glycyl)pyrrolidine-2-carbonitrile], the 50% inhibitory concentration (IC50) was determined as 31.6 nM.

`CC#CCn1c(N2CCC[C@@H](N)C2)nc2c1c(=O)n(Cc1ccccc1B(O)O)c(=O)n2C` [Compound 27, (R)-(2-((8-(3-aminopiperidin-1-yl)-7-(but-2-yn-1-yl)-3-methyl-2,6-dioxo-2,3,6,7-tetrahydro-1H-purin-1-yl)methyl)phenyl)boronic Acid]: the IC50 was 5.3 nM.

Take `CCCCCCN(Cc1cn(CCOCCOCCOC23CC4CC(C2)CC([C@H](N)C(=O)N2[C@H](C#N)C[C@@H]5C[C@@H]52)(C4)C3)nn1)C[C@H](O)[C@@H](O)[C@H](O)[C@H](O)CO` [Compound 21]: the half-inhibitory concentration (IC50) worked out at 7.7 nM.

Consider `N[C@@H](CC(=O)N1CCn2c(C(F)(F)F)nc(C(=O)OCCCN3CCOCC3)c2C1)Cc1cc(F)c(F)cc1F` [Compound 51, (R)-4-(1-((3-morpholinopropoxy)carbonyl)-3-(trifluoromethyl)-5,6-dihydroimidazo[1,5-a]pyrazin-7(8H)-yl)-4-oxo-1-(2,4,5-trifluorophenyl)butan-2-aminium (2R,3R)-3-carboxy-2,3-dihydroxypropanoate], for which the IC50 amounted to 0.18 nM.

Turning to `CC#CCn1c(N2CCC[C@@H](N)C2)nc2c1c(=O)n(Cc1ccc(Cl)cc1C(=O)OCCCCCC)c(=O)n2C` [Compound 38, hexyl (R)-2-((8-(3-aminopiperidin-1-yl)-7-(but-2-yn-1-yl)-3-methyl-2,6-dioxo-2,3,6,7-tetrahydro-1H-purin-1-yl)methyl)-5-chlorobenzoate], the IC50 is over 10000 nM.

Turning to `N#C[C@@H]1CCCN1C(=O)CN[C@]12CC3CC(C1)C[C@@](OCCO)(C3)C2` (stereo in doubt) [Compound 5, (2S)-1-(((1S,3R,5S)-3-(2-hydroxyethoxy)adamantan-1-yl)glycyl)pyrrolidine-2-carbonitrile], the 50% inhibitory concentration (IC50) was 2.3 nM.

As to `CN1CC2(CC(NC(=O)c3nc(C(F)(F)F)n4c3CN(C(=O)C[C@H](N)Cc3cc(F)c(F)cc3F)CC4)C2)C1` [Compound 55, (R)-4-(1-((2-methyl-2-azaspiro[3.3]heptan-6-yl)carbamoyl)-3-(trifluoromethyl)-5,6-dihydroimidazo[1,5-a]pyrazin-7(8H)-yl)-4-oxo-1-(2,4,5-trifluorophenyl)butan-2-aminium (2R,3R)-3-carboxy-2,3-dihydroxypropanoate], the IC50 was 17.8 nM.

Consider `CCN(Cc1ccc(CNC(=O)OCCOCCO[C@@]23CC4C[C@@H](C[C@@](NCC(=O)N5CCC[C@H]5C#N)(C4)C2)C3)cc1)C[C@H](O)[C@@H](O)[C@H](O)[C@H](O)CO` [Compound 12, 2-(2-(((1R,3S,5S)-3-((2-((S)-2-cyanopyrrolidin-1-yl)-2-oxoethyl)amino)adamantan-1-yl)oxy)ethoxy)ethyl (4-((ethyl((2S,3R,4R,5R)-2,3,4,5,6-pentahydroxyhexyl)amino)methyl)benzyl)carbamate], for which the IC50 was 7.9 nM.

With `CC#CCn1c(N2CCC[C@@H](N)C2)nc2c1c(=O)n(Cc1nc(NC)ccc1C(=O)OCCCCCC)c(=O)n2C` [Compound 32, hexyl (R)-2-((8-(3-aminopiperidin-1-yl)-7-(but-2-yn-1-yl)-3-methyl-2,6-dioxo-2,3,6,7-tetrahydro-1H-purin-1-yl)methyl)-6-(methylamino)nicotinate], the IC50 is over 1000 nM.

(Values after patent US20240174675A1, “SMALL MOLECULE REGULATORS OF ALVEOLAR TYPE 2 CELL PROLIFERATION FOR THE TREATMENT OF PULMONARY DISEASES” (THE SCRIPPS RESEARCH INSTITUTE, priority 2021, published 2024).)
